Assays:
[1] = humans, administered orally; cited from earlier work
[2] = just slightly stronger with (R)- than with (S)-phenylpiracetam; cited from earlier work
rats = experiment: motivation tests: progressive ratio task, cost-benefit choice test, consumption test; type: in vivo
Method: EXAMPLE 6: Effect of (R)-phenylpiracetam in motivation tests - Figs. 5, 6, 7, 8
Methylphenidate purchased from Sigma (Taufkirchen, Germany) was dissolved in distilled water fresh for each test day. D-Amphetamine purchased from Sigma (Taufkirchen, Germany) was dissolved in 0.9% sterile NaCl solution fresh for each test day. (R)-Phenylpiracetam was dissolved in distilled water fresh for each test day.
One hundred and three male Sprague-Dawley rats (Janvier, Le Genest-St-Isle, France) weighing 225-250 g on arrival were used.
The animals were kept under standard laboratory conditions in groups of up to 4 per care with ad libitum access to water. Standard diet for rodents (Altromin) was available to the animals at 15 g per animal/day
For each test described below, two independent experiments were performed using an identical protocol. After continuous reinforcement training (CRF) training (see below) all animals were assigned to treatment groups, such that performance across all the groups was similar. The treatment groups were evenly distributed throughout the caging system.
In experiment 1 and 2 the following protocols were used:
Overview: Three tests were performed in a consecutive manner on subsequent days. On day 1-2, animals were habituated individually to Skinner boxes in two sessions, one per day, for 30 min. Animals received "free" food pellets at a random time (one pellet per minute on average). On days 3-8 animals were trained in Skinner boxes on a continuous reinforcement schedule (one pellet per lever press). On days 9-10 they were tested in the progressive ratio test (Test 1) off-drug, on days 11-12 on-drug. On day 13, a choice test (Test 2) was performed on-drug, on day 14, a consumption test (Test 3) was performed on-drug. Below, tests are described in detail.
Behavioral testing was conducted in 12 operant test chambers (Med Associates, St. Albans, USA). Each chamber was equipped with a retractable lever, a food dispenser with receptacle, an overhead house light and two stimulus lights, one above the lever and the other above the food receptacle. An infrared photocell beam detected nose pokes into the food receptacle. The apparatus was controlled by a computer system (SmartControl®-Interface and MedPC-software, Med Associates, St. Albans, USA). The light above the food receptacle indicated the delivery of a food pellet in the receptacle. Rats were first habituated to the operant boxes for two sessions (30 min each) on two consecutive days. Thereafter, animals were trained for six sessions on the CRF schedule for 30 min. Followed by 4 sessions (two session off-drug followed by two sessions on-drug) of an increasing fixed ratio (FR) schedule in steps of 5, with 3 repetitions of each step (i.e. 1-1-1; 5-5-5; 10-10-10; ...). When the required FR value of each trial was achieved the light above the food receptacle indicated the delivery of a single food pellet (45 mg, Bioserve, USA). The light remained on until the rat poked its nose in the receptacle. Lever presses while the light was on were counted as perseverative lever presses; they were counted but had no programmed consequences. […] For each session, the value of the last completed ratio (breaking point) was recorded as well as the amount of received rewards, the perseverative lever presses, the duration of the session and the latency to respond. Animals of all treatment groups received respective vehicle/drug infusions 30 min pre-test on the final two sessions involving testing under a PR schedule.
In this task the rats had the choice between working for their preferred food (Bioserve pellets) by pressing the lever on a PR schedule as described above or obtaining lab chow being freely available in a dish (about 15 g) within the operant chamber. The food receptacle and the lever were positioned on the same wall of the operant chamber, the dish containing the lab chow was situated in a corner on the opposite side of the operant chamber. […]

subjects with PD and EDS = conditions: 200 to 400 mg/day vs placebo, 40 subjects with PD and EDS; cited from earlier work

Which half-life [1] does the source give for `NC(=O)CN1CC(c2ccccc2)CC1=O` (racemic) [phenylpiracetam, 2-(4-phenyl-2-oxopyrrolidin-1-yl)acetamide] here?
The half-life was 3 to 5 h.

For `NC(=O)CN1C[C@H](c2ccccc2)CC1=O` [(S)-phenylpiracetam, reference compound], which “locomotor activity in the open-field test” value [2] is on record?
Its value is “significant increase”.

What about the effect on motivation (rats; 100 mg/kg) of the same compound?
The effect on motivation was “only a very weak effect”.

What about the “effect on motivation relative to (R)-phenylpiracetam” value (rats; 100 mg/kg, times lower than (R)-phenylpiracetam) of the same compound?
Its value is 2.5 times.

And the effect on motivation (rats; 200 mg/kg)?
The effect on motivation was “no significant effect”.

Which “Epworth sleepiness score (primary outcome measure) and secondary outcome measures” value (subjects with PD and EDS) does the source give for `NC(=O)C[S+]([O-])C(c1ccccc1)c1ccccc1` (stereo not drawn) [modafinil] here?
Its value is “no benefit”.

Reference: EP2891491A1, “Use of (r)-phenylpiracetam for the treatment of sleep disorders” (Merz Pharma GmbH & Co. KGaA, priority 2014, dated 2015)
